The values that follow come from PubChem BioAssay AID1259407 (Chemical Carcinogenesis Research Information System (CCRIS), 2018).

Active and inactive are the calls of the source. How the calls were made is not given here.

The test system of the data set is CCRIS mutagenicity, Ames/micronucleus/aberration tests. As to the kind of experiment: CCRIS mutagenicity studies.
Where [1] appears, read: Test System: AMES SALMONELLA TYPHIMURIUM, Strain/Indicator: TA98, Metabolic Activation: NONE, Method: STANDARD PLATE.

For the compound `Nc1ncnc2c1ncn2-c1ccc([N+](=O)[O-])cc1[N+](=O)[O-]`, the mutagenic call was “inactive; negative” (Test System: AMES SALMONELLA TYPHIMURIUM, Strain/Indicator: TA98(1,8-DNP), Metabolic Activation: NONE, Method: PREINCUBATION); “inactive; negative” (Test System: AMES SALMONELLA TYPHIMURIUM, Strain/Indicator: TA98(1,8-DNP), Metabolic Activation: RAT, LIVER, S-9, PCB, Method: PREINCUBATION); “inactive; negative” (Test System: AMES SALMONELLA TYPHIMURIUM, Strain/Indicator: TA98(NR), Metabolic Activation: NONE, Method: PREINCUBATION); “inactive; negative” (Test System: AMES SALMONELLA TYPHIMURIUM, Strain/Indicator: TA98(NR), Metabolic Activation: RAT, LIVER, S-9, PCB, Method: PREINCUBATION); “inactive; negative” (Test System: AMES SALMONELLA TYPHIMURIUM, Strain/Indicator: TA98, Metabolic Activation: NONE, Method: PREINCUBATION); “inactive; negative” (Test System: AMES SALMONELLA TYPHIMURIUM, Strain/Indicator: TA98, Metabolic Activation: RAT, LIVER, S-9, PCB, Method: PREINCUBATION). Further, the mutagenic call by setting is: (Test System: AMES SALMONELLA TYPHIMURIUM, Strain/Indicator: TA100(1,8-DNP), Metabolic Activation: RAT, LIVER, S-9, PCB, Method: PREINCUBATION) “inactive; negative”; (Test System: AMES SALMONELLA TYPHIMURIUM, Strain/Indicator: TA100(NR), Metabolic Activation: NONE, Method: PREINCUBATION) “inactive; negative”; (Test System: AMES SALMONELLA TYPHIMURIUM, Strain/Indicator: TA100(NR), Metabolic Activation: RAT, LIVER, S-9, PCB, Method: PREINCUBATION) “inactive; negative”; (Test System: AMES SALMONELLA TYPHIMURIUM, Strain/Indicator: TA100, Metabolic Activation: NONE, Method: PREINCUBATION) “active; positive”; (Test System: AMES SALMONELLA TYPHIMURIUM, Strain/Indicator: YG1020, Metabolic Activation: RAT, LIVER, S-9, PCB, Method: PREINCUBATION) “inactive; negative”; (Test System: AMES SALMONELLA TYPHIMURIUM, Strain/Indicator: YG1021, Metabolic Activation: RAT, LIVER, S-9, PCB, Method: PREINCUBATION) “inactive; negative”. In addition, the mutagenic call (Test System: AMES SALMONELLA TYPHIMURIUM, Strain/Indicator: YG1024, Metabolic Activation: NONE, Method: PREINCUBATION) is “active; positive”; the mutagenic call (Test System: AMES SALMONELLA TYPHIMURIUM, Strain/Indicator: YG1024, Metabolic Activation: RAT, LIVER, S-9, PCB, Method: PREINCUBATION) was “active; positive”; the mutagenic call (Test System: AMES SALMONELLA TYPHIMURIUM, Strain/Indicator: YG1025, Metabolic Activation: NONE, Method: PREINCUBATION) was “inactive; negative”; the mutagenic call (Test System: AMES SALMONELLA TYPHIMURIUM, Strain/Indicator: YG1025, Metabolic Activation: RAT, LIVER, S-9, PCB, Method: PREINCUBATION) was “inactive; negative”; the mutagenic call (Test System: AMES SALMONELLA TYPHIMURIUM, Strain/Indicator: YG1026, Metabolic Activation: NONE, Method: PREINCUBATION) is “inactive; negative”; the mutagenic call (Test System: AMES SALMONELLA TYPHIMURIUM, Strain/Indicator: YG1026, Metabolic Activation: RAT, LIVER, S-9, PCB, Method: PREINCUBATION) is “inactive; negative”. For the same compound, the mutagenic call (Test System: AMES SALMONELLA TYPHIMURIUM, Strain/Indicator: YG1029, Metabolic Activation: NONE, Method: PREINCUBATION) was “active; positive” and the mutagenic call (Test System: AMES SALMONELLA TYPHIMURIUM, Strain/Indicator: YG1029, Metabolic Activation: RAT, LIVER, S-9, PCB, Method: PREINCUBATION) is “active; positive”.
With `Cc1cc2ncccc2c2nc(N=[N+]=[N-])n(C)c12`, the mutagenic call (Test System: AMES SALMONELLA TYPHIMURIUM, Strain/Indicator: TA98(1,8-DNP6), Metabolic Activation: NONE, Method: STANDARD PLATE) is “active; positive” and the mutagenic call under setting [1] was “active; positive”.
As for `OCc1ccc2nc3c(ccc4ccccc43)c(CO)c2c1`, where the note is “Test System: AMES SALMONELLA TYPHIMURIUM, Strain/Indicator: TA100, Metabolic Activation: RAT, LIVER, S-9, AROCLOR 1254, Method: STANDARD PLATE”, the mutagenic call was “active; positive”.
On to `COC(=O)c1cc2ccc3ccc[n+](C)c3c2[nH]1`, for which the mutagenic call was “inactive; negative” under setting [1] and “inactive; negative” (Test System: E. COLI, Strain/Indicator: WP2 TM9, Metabolic Activation: NONE, Method: STANDARD PLATE).
In the case of `CC(C)c1ccccc1`, the mutagenic call is “active; positive (both trials)” (End Point: In vivo micronucleus, Test System: Polychromatic erythrocytes in bone marrow, Species: Rat, Strain/Sex: F344/N / Male, Route: Intraperitoneal); “inactive; negative” (End Point: In vivo micronucleus, Test System: Polychromatic erythrocytes in peripheral blood, Species: Mouse, Strain/Sex: B6C3F1/ Female, Route: Inhalation); “inactive; negative” (End Point: In vivo micronucleus, Test System: Polychromatic erythrocytes in peripheral blood, Species: Mouse, Strain/Sex: B6C3F1/ Male, Route: Inhalation); “inactive; negative” (Test System: Ames Salmonella typhimurium, Strain/Indicator: TA97, Metabolic Activation: Hamster, Liver, S-9, Aroclor 1254 (10%), Method: Preincubation); “inactive; negative” (Test System: Ames Salmonella typhimurium, Strain/Indicator: TA97, Metabolic Activation: Hamster, Liver, S-9, Aroclor 1254 (30%), Method: Preincubation); “inactive; negative” (Test System: Ames Salmonella typhimurium, Strain/Indicator: TA97, Metabolic Activation: None, Method: Preincubation). The mutagenic call was “inactive; negative” (Test System: Ames Salmonella typhimurium, Strain/Indicator: TA97, Metabolic Activation: Rat, Liver, S-9, Aroclor 1254 (10%), Method: Preincubation); “inactive; negative” (Test System: Ames Salmonella typhimurium, Strain/Indicator: TA97, Metabolic Activation: Rat, Liver, S-9, Aroclor 1254 (30%), Method: Preincubation); “inactive; negative” (Test System: Ames Salmonella typhimurium, Strain/Indicator: TA98, Metabolic Activation: Hamster, Liver, S-9, Aroclor 1254 (10%), Method: Preincubation); “inactive; negative” (Test System: Ames Salmonella typhimurium, Strain/Indicator: TA98, Metabolic Activation: Hamster, Liver, S-9, Aroclor 1254 (30%), Method: Preincubation); “inactive; negative” (Test System: Ames Salmonella typhimurium, Strain/Indicator: TA98, Metabolic Activation: None, Method: Preincubation); “inactive; negative” (Test System: Ames Salmonella typhimurium, Strain/Indicator: TA98, Metabolic Activation: Rat, Liver, S-9, Aroclor 1254 (10%), Method: Preincubation). Moreover, the mutagenic call reads like this: (Test System: Ames Salmonella typhimurium, Strain/Indicator: TA98, Metabolic Activation: Rat, Liver, S-9, Aroclor 1254 (30%), Method: Preincubation) “inactive; negative”; (Test System: Ames Salmonella typhimurium, Strain/Indicator: TA100, Metabolic Activation: Hamster, Liver, S-9, Aroclor 1254 (10%), Method: Preincubation) “inactive; negative”; (Test System: Ames Salmonella typhimurium, Strain/Indicator: TA100, Metabolic Activation: Hamster, Liver, S-9, Aroclor 1254 (30%), Method: Preincubation) “inactive; negative”; (Test System: Ames Salmonella typhimurium, Strain/Indicator: TA100, Metabolic Activation: None, Method: Preincubation) “inactive; negative”; (Test System: Ames Salmonella typhimurium, Strain/Indicator: TA100, Metabolic Activation: Rat, Liver, S-9, Aroclor 1254 (10%), Method: Preincubation) “inactive; negative”; (Test System: Ames Salmonella typhimurium, Strain/Indicator: TA100, Metabolic Activation: Rat, Liver, S-9, Aroclor 1254 (30%), Method: Preincubation) “inactive; negative”. Moreover, the mutagenic call reads like this: (Test System: Ames Salmonella typhimurium, Strain/Indicator: TA1535, Metabolic Activation: Hamster, Liver, S-9, Aroclor 1254 (10%), Method: Preincubation) “inactive; negative”; (Test System: Ames Salmonella typhimurium, Strain/Indicator: TA1535, Metabolic Activation: Hamster, Liver, S-9, Aroclor 1254 (30%), Method: Preincubation) “inactive; negative”; (Test System: Ames Salmonella typhimurium, Strain/Indicator: TA1535, Metabolic Activation: None, Method: Preincubation) “inactive; negative”; (Test System: Ames Salmonella typhimurium, Strain/Indicator: TA1535, Metabolic Activation: Rat, Liver, S-9, Aroclor 1254 (10%), Method: Preincubation) “inactive; negative”; (Test System: Ames Salmonella typhimurium, Strain/Indicator: TA1535, Metabolic Activation: Rat, Liver, S-9, Aroclor 1254 (30%), Method: Preincubation) “inactive; negative”.
Regarding `CNNc1ccn([C@@H]2O[C@H](CO)[C@@H](O)[C@H]2O)c(=O)n1`, the mutagenic call (Test System: CHINESE HAMSTER V-79, Strain/Indicator: V-79/6-THIOGUANINE, Metabolic Activation: NONE, Method: REPLATING) is “active; positive”.
Consider `CC(C)(Oc1ccc(C2CCCc3ccccc32)cc1)C(=O)O` (stereo unspecified), for which the mutagenic call (Test System: AMES SALMONELLA TYPHIMURIUM, Strain/Indicator: TA98, Metabolic Activation: NONE) is “inactive; negative”; the mutagenic call (Test System: AMES SALMONELLA TYPHIMURIUM, Strain/Indicator: TA98, Metabolic Activation: RAT, LIVER, S-9, AROCLOR 1254) is “inactive; negative”; the mutagenic call (Test System: AMES SALMONELLA TYPHIMURIUM, Strain/Indicator: TA102, Metabolic Activation: NONE) was “inactive; negative”; the mutagenic call (Test System: AMES SALMONELLA TYPHIMURIUM, Strain/Indicator: TA102, Metabolic Activation: RAT, LIVER, S-9, AROCLOR 1254) was “inactive; negative”; the mutagenic call (Test System: AMES SALMONELLA TYPHIMURIUM, Strain/Indicator: TA104, Metabolic Activation: NONE) was “inactive; negative”; the mutagenic call (Test System: AMES SALMONELLA TYPHIMURIUM, Strain/Indicator: TA104, Metabolic Activation: RAT, LIVER, S-9, AROCLOR 1254) is “inactive; negative”. The mutagenic call (Test System: UDS RAT HEPATOCYTES, Strain/Indicator: THY INCORP, Metabolic Activation: NONE, Method: LIQUID SCINTILLATION COUNTING) is “inactive; negative”.
